Laboratory results reported in ChEMBL document CHEMBL1149719, “Psammaplysin C: a new cytotoxic dibromotyrosine-derived metabolite from the marine sponge Druinella (= Psammaplysilla) purpurea” (J Nat Prod, 1992).
In brackets after ≈: the same amount, converted by molar mass.

Test system: HCT-116
Assay: Cytotoxicity against human HCT116 cells
Assay type: functional, cell-based

| Structure (SMILES) | IC50 [µg/mL] |
| --- | --- |
| COC1=C(Br)C[C@]2(OC=C1Br)ON=C(C(=O)NCCCOc1c(Br)cc(C(O)CN)cc1Br)[C@@H]2O (stereo partly drawn) [PSAMMAPLYSIN B] | 6 (≈ 8.01 µM) |
| COC1=C(Br)C[C@]2(OC=C1Br)ON=C(C(=O)NCCCOc1c(Br)cc(CCN)cc1Br)[C@@H]2O [PSAMMAPLYSIN A] | 6 (≈ 8.19 µM) |
| CNCC(O)c1cc(Br)c(OCCCNC(=O)C2=NO[C@@]3(CC(Br)=C(OC)C(Br)=CO3)[C@H]2O)c(Br)c1 (stereo partly drawn) [PSAMMAPLYSIN C] | 3 (≈ 3.93 µM) |
